Molecular target: T1, Human M4 (Homo sapiens, UniProt P08173)
T1 construct: expressed in transfected cells; host or cells: CHO-K1 (ATCC), stably co-expressing chimeric G protein Gqi5
T1 sequence (P08173 1-479): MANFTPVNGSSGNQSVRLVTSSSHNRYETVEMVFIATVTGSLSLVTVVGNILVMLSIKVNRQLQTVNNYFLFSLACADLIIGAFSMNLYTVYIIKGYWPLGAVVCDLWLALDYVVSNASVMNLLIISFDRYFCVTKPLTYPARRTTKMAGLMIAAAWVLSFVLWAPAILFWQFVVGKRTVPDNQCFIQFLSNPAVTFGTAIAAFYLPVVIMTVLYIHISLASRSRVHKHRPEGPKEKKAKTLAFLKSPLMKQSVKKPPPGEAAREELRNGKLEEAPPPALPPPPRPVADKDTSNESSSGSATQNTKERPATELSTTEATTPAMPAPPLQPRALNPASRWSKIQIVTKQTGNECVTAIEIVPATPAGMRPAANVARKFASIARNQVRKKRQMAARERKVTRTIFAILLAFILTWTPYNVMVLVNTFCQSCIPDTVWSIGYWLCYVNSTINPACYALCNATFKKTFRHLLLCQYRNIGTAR
Experiment: mAChR M4 cell-based functional assay (calcium flux, antagonist mode)
Conditions: for remaining activity at 30 µM: % ACh maximum at 30 μM, read-out: Emin; for IC50: M4/Gqi5/CHO-K1 cells, concentration-dependent decrease of the EC80 acetylcholine response
Description: Human or rat M4 cDNA, along with the chimeric G protein Gqi5, were transfected into Chinese hamster ovary (CHO-K1) cells purchased from the American Type Culture Collection using Lipofectamine2000. M4/Gqi5/CHO cells were grown in Ham's F-12 medium containing 10% heat-inactivated fetal bovine serum (FBS), 20 mM HEPES, 500 μg/mL G418 sulfate, and 200 μg/mL Hygromycin B.
For high throughput measurement of agonist-evoked increases in intracellular calcium, CHO-K1 cells stably expressing muscarinic receptors were plated in growth medium lacking G418 and hygromycin at 15,000 cells/20 μL/well in Greiner 384-well black-walled, tissue culture (TC)-treated, clear-bottom plates (VWR). Cells were incubated overnight at 37° C. and 5% CO2. The next day, cells were washed using an ELX 405 (BioTek) with assay buffer; the final volume was then aspirated to 20 μL, Next, 20 μL of a 2.3 μM stock of Fluo-4/acetoxymethyl ester (Invitrogen, Carlsbad, Calif.), prepared as a 2.3 μM stock in DMSO, mixed in a 1:1 ratio with 10% (w/v) Pluronic F-127 and diluted in assay buffer, was added to the wells and the cell plates were incubated for 50 min at 37° C. and 5% CO2. Dye was removed by washing with the ELX 405 and the final volume was aspirated to […]. Compound master plates were formatted in a 10 point concentration-response curve (CRC) format (1:3 dilutions) in 100% DMSO with a starting concentration of 10 or 1 mM using a BRAVO liquid handler (Agilent). Test compound CRCs were then transferred to daughter plates (240 nL) using the Echo acoustic plate reformatter (Labcyte, Sunnyvale, Calif.) and then diluted into assay buffer (40 μL) to a 2× stock using a Thermo Fisher Combi (Thermo Fisher Scientific, Waltham, Mass.).
Calcium flux was measured using the Functional Drug Screening System (FDSS) 6000 or 7000 (Hamamatsu Corporation, Tokyo, Japan) as an increase in the fluorescent static ratio. Compounds were applied to cells (20 μL, 2×) using the automated system of the FDSS at 2 seconds into the protocol and the data were collected at 1 Hz. At 143 s, 10 μL of an EC20 concentration of the muscarinic receptor agonist acetylcholine was added (5×), followed by the addition of 12 μL of an EC80 concentration of acetylcholine at the 268 s time point (5×). Agonist activity was analyzed as a concentration-dependent increase in calcium mobilization upon compound addition. Positive allosteric modulator activity was analyzed as a concentration-dependent increase in the EC20 acetylcholine response. Antagonist activity was analyzed as a concentration-dependent decrease in the EC80 acetylcholine response; for the purposes of the tables herein, an […] (inhibitory concentration 50) was calculated as a concentration-dependent decrease of the response elicited by an EC80 concentration of acetylcholine. Concentration-response curves were generated using a four-parameter logistical equation in XLFit curve fitting software (IDBS, Bridgewater, N.J.) for Excel (Microsoft, Redmond, Wash.) or Prism (GraphPad Software, Inc., San Diego, Calif.) or the Dotmatics software platform (Dotmatics, Bishop's Stortford, UK).
Compounds were synthesized as described above. Activity (IC50 and Emin) was determined in the mAChR M4 cell-based functional assay as described above and the data are shown in Table 4.

Structure (SMILES) | remaining activity at 30 µM [%] | IC50 [µM]
Fc1ccc(Cl)c(-c2ccc(NCC3CC4(CCN(Cc5ccccc5)CC4)C3)nn2)c1 [Compound 45, N-[(7-benzyl-7-azaspiro[3.5]nonan-2-yl)methyl]-6-(2-chloro-5-fluoro-phenyl)pyridazin-3-amine] | 5.72 | 1.34
Cc1nn(C)cc1-c1ccc(NC2CC3(CCN(CC4CCOCC4)CC3)C2)nn1 [Compound 5, N-[6-(1,3-dimethylpyrazol-4-yl)pyridazin-3-yl]-7-(tetrahydropyran-4-ylmethyl)-7-azaspiro[3.5]nonan-2-amine] | 15.9 | > 10
Cc1nn(C)cc1-c1ccc(NCC2CC3(CCN(CC4CCOCC4)CC3)C2)nn1 [Compound 52, 6-(1,3-dimethylpyrazol-4-yl)-N-[[7-(tetrahydropyran-4-ylmethyl)-7-azaspiro[3.5]nonan-2-yl]methyl]pyridazin-3-amine] | 30.8 | > 10
Cc1nn(C)cc1-c1ccc(NCC2CC3(CCN(CC4CCCCC4)CC3)C2)nn1 [Compound 50, N-[[7-(cyclohexylmethyl)-7-azaspiro[3.5]nonan-2-yl]methyl]-6-(1,3-dimethylpyrazol-4-yl)pyridazin-3-amine] | 6.19 | 1.16
Cc1cnn(C)c1-c1ccc(NC2CC3(CCN(CC4CCSCC4)CC3)C2)nn1 [Compound 11, N-[6-(2,4-dimethylpyrazol-3-yl)pyridazin-3-yl]-7-(tetrahydrothiopyran-4-ylmethyl)-7-azaspiro[3.5]nonan-2-amine] | 3.95 | 0.21
Fc1ccc(Cl)c(-c2ccc(OCC3CC4(CCN(CC5CCCCC5)CC4)C3)nn2)c1 [Compound 62, 2-[[6-(2-chloro-5-fluoro-phenyl)pyridazin-3-yl]oxymethyl]-7-(cyclohexylmethyl)-7-azaspiro[3.5]nonane] | 6.14 | 1.49
Cc1nn(C)cc1-c1ccc(NCC2CC3(CCN(Cc4ccccc4)CC3)C2)nn1 [Compound 53, N-[(7-benzyl-7-azaspiro[3.5]nonan-2-yl)methyl]-6-(1,3-dimethylpyrazol-4-yl)pyridazin-3-amine] | 8.66 | 2.68
CC(C)(C)CCN1CCC2(CC1)CC(Oc1ccc(-c3cc(F)ccc3Cl)nn1)C2 [Compound 15, 2-[6-(2-Chloro-5-fluoro-phenyl)pyridazin-3-yl]oxy-7-(3,3-dimethylbutyl)-7-azaspiro[3.5]nonane] | 3.01 | 0.33
Cc1nn(C)cc1-c1ccc(OC2CC3(CCN(CC4CCOCC4)CC3)C2)nn1 [Compound 27, 2-[6-(1,3-dimethylpyrazol-4-yl)pyridazin-3-yl]oxy-7-(tetrahydropyran-4-ylmethyl)-7-azaspiro[3.5]nonane] | 11.6 | 4.43
Cc1cnn(C)c1-c1ccc(NC2CC3(CCN(CC4CCOCC4)CC3)C2)nn1 [Compound 10, N-[6-(2,4-dimethylpyrazol-3-yl)pyridazin-3-yl]-7-(tetrahydropyran-4-ylmethyl)-7-azaspiro[3.5]nonan-2-amine] | 23.1 | > 10
Cc1nn(C)cc1-c1ccc(NCC2CC3(CCN(Cc4ccc(F)cc4)CC3)C2)nn1 [Compound 58, 6-(1,3-dimethylpyrazol-4-yl)-N-[[7-[(4-fluorophenyl)methyl]-7-azaspiro[3.5]nonan-2-yl]methyl]pyridazin-3-amine] | 11.8 | 5.1
Fc1ccc(Cl)c(-c2ccc(OCC3CC4(CCN(Cc5ccccn5)CC4)C3)nn2)c1 [Compound 66, 2-[[6-(2-chloro-5-fluoro-phenyl)pyridazin-3-yl]oxymethyl]-7-(2-pyridylmethyl)-7-azaspiro[3.5]nonane] | 8.3 | 2.74
Fc1ccc(Cl)c(-c2ccc(NCC3CC4(CCN(CC5CC6C=CC5C6)CC4)C3)nn2)c1 (centres unmarked) [Compound 40, N-[[7-(5-bicyclo[2.2.1]hept-2-enylmethyl)-7-azaspiro[3.5]nonan-2-yl]methyl]-6-(2-chloro-5-fluoro-phenyl)pyridazin-3-amine] | 2.63 | 0.24
Cc1nn(C)cc1-c1ccc(OC2CC3(CCN(CC4CC5C=CC4C5)CC3)C2)nn1 (centres unmarked) [Compound 24, 7-(5-bicyclo[2,2.1]hept-2-enylmethyl)-2-[6-(1,3-dimethylpyrazol-4-yl)pyridazin-3-yl]oxy-7-azaspiro[3.5]nonane] | 2.76 | 0.11
Cc1nn(C)cc1-c1ccc(OC2CC3(CCN(CC4CCCOC4)CC3)C2)nn1 (centres unmarked) [Compound 28, 2-[6-(1,3-dimethylpyrazol-4-yl)pyridazin-3-yl]oxy-7-(tetrahydropyran-3-ylmethyl)-7-azaspiro[3.5]nonane] | 17.1 | 5.81
CC(CN1CCC2(CC1)CC(Oc1ccc(-c3cc(F)ccc3Cl)nn1)C2)C(C)(C)C (centres unmarked) [Compound 17, 2-[6-(2-chloro-5-fluoro-phenyl)pyridazin-3-yl]oxy-7-(2,3,3-trimethylbutyl)-7-azaspiro[3.5]nonane] | 2.73 | 0.59
Fc1ccc(Cl)c(-c2ccc(OCC3CC4(CCN(CC5CCCOC5)CC4)C3)nn2)c1 (centres unmarked) [Compound 63, 2-[[6-(2-chloro-5-fluoro-phenyl)pyridazin-3-yl]oxymethyl]-7-(tetrahydropyran-3-ylmethyl)-7-azaspiro[3.5]nonane] | 7.8 | 2.13
CC(C)(C)CCN1CCC2(CC1)CC(CNc1ccc(-c3cc(F)ccc3Cl)nn1)C2 [Compound 41, 6-(2-chloro-5-fluoro-phenyl)-N-[[7-(3,3-dimethylbutyl)-7-azaspiro[3.5]nonan-2-yl]methyl]pyridazin-3-amine] | 2.42 | 0.47
CC(C)(C)CCN1CCC2(CC1)CC(COc1ccc(-c3cc(F)ccc3Cl)nn1)C2 [Compound 60, 2-[[6-(2-Chloro-5-fluoro-phenyl)pyridazin-3-yl]oxymethyl]-7-(3,3-dimethylbutyl)-7-azaspiro[3.5]nonane] | 3.47 | 0.3
Cc1nn(C)cc1-c1ccc(NC2CC3(CCN(CC(C)C(C)(C)C)CC3)C2)nn1 (centres unmarked) [Compound 4, N-[6-(1,3-dimethylpyrazol-4-yl)pyridazin-3-yl]-7-(2,3,3-trjmethylbutyl)-7-azaspiro[3.5]nonan-2-amine] | 4.05 | 1.02
Cc1cccnc1CN1CCC2(CC1)CC(Oc1ccc(-c3cc(F)ccc3Cl)nn1)C2 [Compound 23, 2-[6-(2-chloro-5-fluoro-phenyl)pyridazin-3-yl]oxy-7-[(3-methyl-2-pyridyl)methyl]-7-azaspiro[3.5]nonane] | 3.36 | 0.9
Cc1nn(C)cc1-c1ccc(OC2CC3(CCN(CC4CCCCC4)CC3)C2)nn1 [Compound 26, 7-(cyclohexylmethyl)-2-[6-(1,3-dimethylpyrazol-4-yl)pyridazin-3-yl]oxy-7-azaspiro[3.5]nonane] | 4.43 | 0.63
